# Data reported in publication PMC9032718, “Eltrombopag as an Allosteric Inhibitor of the METTL3-14 Complex Affecting the m^6A Methylation of RNA in Acute Myeloid Leukemia Cells” (Pharmaceuticals, 2022).
# Target: T1, METTL14 (Homo sapiens, UniProt Q9HCE5)
# T1 construct: 10x His (thrombin-cleavable); made in house; host or cells: insect cells, baculovirus (pVL1393)
# T1 sequence (Q9HCE5 1-456): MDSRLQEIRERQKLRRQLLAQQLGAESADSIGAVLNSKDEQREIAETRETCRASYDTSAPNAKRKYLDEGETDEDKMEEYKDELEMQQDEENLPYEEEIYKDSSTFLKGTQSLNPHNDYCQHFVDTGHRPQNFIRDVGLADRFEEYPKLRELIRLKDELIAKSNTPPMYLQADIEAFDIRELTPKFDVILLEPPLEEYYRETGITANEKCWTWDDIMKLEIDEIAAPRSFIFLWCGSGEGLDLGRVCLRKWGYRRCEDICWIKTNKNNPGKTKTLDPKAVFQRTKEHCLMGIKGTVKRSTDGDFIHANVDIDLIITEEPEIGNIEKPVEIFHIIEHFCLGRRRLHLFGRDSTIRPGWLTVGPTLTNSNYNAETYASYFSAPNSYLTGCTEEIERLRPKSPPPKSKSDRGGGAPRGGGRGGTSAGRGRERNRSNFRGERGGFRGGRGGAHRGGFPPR
# Assay: Bioluminescence enzyme assay, single form of METTL14
# Format: biochemical
# Conditions: 36 μM eltrombopag; 300 nM METTL14, 5 h; read-out: % inhibition, single subunit enzyme form of METTL14
# Description: An enzymatic bioluminescence assay was established to identify the METTL3-14 inhibitor through screening. […] METTL3-14 activity was assessed by measuring the luminescence using a Victor multilabel reader (PerkinElmer, Waltham, MA, USA). The IC50 values were calculated by a nonlinear regression analysis using OriginPro 9.1 software (OriginLab).
# To confirm the mechanism of action of eltrombopag in the METTL3-14 complex, 30 nM METTL3-14 and serially diluted eltrombopag were reacted with various concentrations of SAM or RNA substrate and saturating concentrations of the other substrate (3 μM SAM or 2 μM RNA substrate) for 20 min. To evaluate the inhibitory activity in a single form of METTL3 and METTL14, 1 μM of METTL3 and 300 nM of METTL14 were incubated with 1 μM of SAM, 500 nM of RNA substrates, and serially diluted eltrombopag for 5 h. To measure the inhibitory activity in the truncated form of the METTL3-14 complex, 1 μM of the truncated METTL3-14 complex was reacted with 1 μM of SAM, 500 nM of RNA substrates, and serially diluted eltrombopag for 5 h.
smiles,measurement,value
CC1=NN(c2ccc(C)c(C)c2)C(=O)/C1=N\Nc1cccc(-c2cccc(C(=O)O)c2)c1O [Eltrombopag],inhibition at 36 µM,59.3%
